pIC50: −log10 of the molar value.
molecular target: ALK2 (Homo sapiens (Human), UniProt Q04771); test: ALK2 inhibition, LanthaScreen Eu Kinase Binding Assay (ThermoFisher Scientific / Life Technologies); conditions: read-out: Measured Ki (IC50) Value for Compounds: IC50
Protocol: Biochemical assays to measure the inhibitory effects of the compounds were performed by ThermoFisher Scientific (Life Technologies). ALK2 inhibition was tested using LanthaScreen™ Eu Kinase Binding Assay screening protocol.

ALK2, sequence (Q04771 21-509): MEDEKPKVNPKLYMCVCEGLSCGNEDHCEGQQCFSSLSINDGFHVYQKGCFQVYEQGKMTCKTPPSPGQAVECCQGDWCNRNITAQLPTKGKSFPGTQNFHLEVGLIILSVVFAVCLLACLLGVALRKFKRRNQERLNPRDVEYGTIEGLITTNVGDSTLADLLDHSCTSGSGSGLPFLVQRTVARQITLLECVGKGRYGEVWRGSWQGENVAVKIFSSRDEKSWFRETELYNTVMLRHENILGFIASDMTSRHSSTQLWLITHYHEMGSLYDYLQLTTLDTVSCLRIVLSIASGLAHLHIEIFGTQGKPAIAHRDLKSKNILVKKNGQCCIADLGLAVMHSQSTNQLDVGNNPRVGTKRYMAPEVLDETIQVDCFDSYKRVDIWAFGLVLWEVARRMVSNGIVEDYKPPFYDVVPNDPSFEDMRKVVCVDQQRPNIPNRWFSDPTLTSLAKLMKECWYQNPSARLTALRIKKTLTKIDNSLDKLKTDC

| Compound | pIC50 |
| --- | --- |
| COc1cc(-n2cnc(Nc3nc(-c4cccc(C(N)=O)c4)nc4sccc34)c2)cc(OC)c1OC [Compound 146a, 3-(4-((1-(3,4,5-trimethoxyphenyl)-1H-imidazol-4-yl)amino)thieno[2,3-d]pyrimidin-2-yl)benzamide] | > 7.00 |
| COc1cc(-n2cnc(Nc3nc(N4CCC[C@H]4C(N)=O)c4cccn4n3)c2)cc(OC)c1OC [Compound 147b, (S)-1-(2-((1-(3,4,5-trimethoxyphenyl)-1H-imidazol-4-yl)amino)pyrrolo[2,1-f][1,2,4]triazin-4-yl)pyrrolidine-2-carboxamide] | < 6.00 |
| COc1cc(-n2cnc(Nc3nc(N4CCC[C@H]4CO)nc4c3CN(Cc3ccccc3)CC4)c2)cc(OC)c1OC [Compound 149c, (S)-(1-(6-benzyl-4-((1-(3,4,5-trimethoxyphenyl)-1H-imidazol-4-yl)amino)-5,6,7,8-tetrahydropyrido[4,3-d]pyrimidin-2-yl)pyrrolidin-2-yl)methanol] | 6.00 to 7.00 |
| COc1cc(-n2cnc(Nc3nc(N4CCC[C@H]4C(N)=O)nc4c3CN(Cc3ccccc3)CC4)c2)cc(OC)c1OC [Compound 152a, (S)-1-(6-benzyl-4-(1-(3,4,5-trimethoxyphenyl)-1H-imidazol-4-ylamino)-5,6,7,8-tetrahydropyrido[4,3-d]pyrimidin-2-yl)pyrrolidine-2-carboxamide] | 6.00 to 7.00 |
| COc1cc(-n2cnc(Nc3nc(N4CCC[C@H]4C(N)=O)nc4c3CCN(Cc3ccccc3)C4)c2)cc(OC)c1OC [Compound 154a, (S)-1-(7-benzyl-4-((1-(3,4,5-trimethoxyphenyl)-1H-imidazol-4-yl)amino)-5,6,7,8-tetrahydropyrido[3,4-d]pyrimidin-2-yl)pyrrolidine-2-carboxamide] | > 7.00 |
| COc1cc(-n2cnc(Nc3nc(N4CCC[C@H]4C(N)=O)nc4sccc34)c2)cc(OC)c1OC [Compound 155a, (S)-1-(4-((1-(3,4,5-trimethoxyphenyl)-1H-imidazol-4-yl)amino)thieno[2,3-d]pyrimidin-2-yl)pyrrolidine-2-carboxamide] | > 7.00 |
| COc1cc(-n2cnc(Nc3nc(N4CCCC4)nn4cccc34)c2)cc(OC)c1OC [Compound 156a, 2-(pyrrolidin-1-yl)-N-(1-(3,4,5-trimethoxyphenyl)-1H-imidazol-4-yl)pyrrolo[2,1-f][1,2,4]triazin-4-amine] | > 7.00 |
| COc1cc(-n2cnc(Nc3nc(-c4ccccc4C(N)=O)nc4sccc34)c2)cc(OC)c1OC [Compound 157a, 2-(4-((1-(3,4,5-trimethoxyphenyl)-1H-imidazol-4-yl)amino)thieno[2,3-d]pyrimidin-2-yl)benzamide] | > 7.00 |
| COc1cc(-n2cnc(Nc3nc(N4CCC[C@H]4C(N)=O)nc4scnc34)c2)cc(OC)c1OC [Compound 158b, (S)-1-(7-((1-(3,4,5-trimethoxyphenyl)-1H-imidazol-4-yl)amino)thiazolo[5,4-d]pyrimidin-5-yl)pyrrolidine-2-carboxamide] | > 7.00 |
| COc1cc(-n2cnc(Nc3nc(N4CCC[C@H]4C(N)=O)nc4cccnc34)c2)cc(OC)c1OC [Compound 161a, (S)-1-(4-((1-(3,4,5-trimethoxyphenyl)-1H-imidazol-4-yl)amino)pyrido[3,2-d]pyrimidin-2-yl)pyrrolidine-2-carboxamide] | 6.00 to 7.00 |
| COc1cc(-n2cnc(Nc3nc(N4CCC[C@H]4C(N)=O)nc4cc[nH]c34)c2)cc(OC)c1OC [Compound 162b, (S)-1-(4-((1-(3,4,5-trimethoxyphenyl)-1H-imidazol-4-yl)amino)-5H-pyrrolo[3,2-d]pyrimidin-2-yl)pyrrolidine-2-carboxamide] | > 7.00 |

Next, values leading:

| pIC50 | Compound |
| --- | --- |
| > 7.00 | COc1cc(-n2cnc(Nc3nc(N4CCC[C@H]4CO)nc4c(OC(C)C)cccc34)c2)cc(OC)c1OC [Compound 144a, (S)-(1-(8-isopropoxy-4-((1-(3,4,5-trimethoxyphenyl)-1H-imidazol-4-yl)amino)quinazolin-2-yl)pyrrolidin-2-yl)methanol] |
| > 7.00 | COc1cc(-n2cnc(Nc3nc(N4CCC[C@H]4CO)nc4cc(OC(C)C)ccc34)c2)cc(OC)c1OC [Compound 145h, (S)-(1-(7-isopropoxy-4-((1-(3,4,5-trimethoxyphenyl)-1H-imidazol-4-yl)amino)quinazolin-2-yl)pyrrolidin-2-yl)methanol] |
| > 7.00 | COc1cc(-n2cnc(Nc3nc(N4CCC[C@H]4CO)c4occc4n3)c2)cc(OC)c1OC [Compound 148b, (S)-(1-(2-((1-(3,4,5-trimethoxyphenyl)-1H-imidazol-4-yl)amino)furo[3,2-d]pyrimidin-4-yl)pyrrolidin-2-yl)methanol] |
| > 7.00 | COc1cc(-n2cnc(Nc3nc(N4CCC[C@H]4CO)c4ncsc4n3)c2)cc(OC)c1OC [Compound 150c, (S)-(1-(5-((1-(3,4,5-trimethoxyphenyl)-1H-imidazol-4-yl)amino)thiazolo[5,4-d]pyrimidin-7-yl)pyrrolidin-2-yl)methanol] |
| 6.00 to 7.00 | COc1cc(-n2cnc(Nc3nc(N4CCC[C@H]4C(N)=O)c4occc4n3)c2)cc(OC)c1OC [Compound 151b, (S)-1-(2-((1-(3,4,5-trimethoxyphenyl)-1H-imidazol-4-yl)amino)furo[3,2-d]pyrimidin-4-yl)pyrrolidine-2-carboxamide] |
| > 7.00 | COc1cc(-n2cnc(Nc3nc(N4CCC[C@H]4CO)nc4c3CCN(Cc3ccccc3)C4)c2)cc(OC)c1OC [Compound 153c, (S)-(1-(7-benzyl-4-((1-(3,4,5-trimethoxyphenyl)-1H-imidazol-4-yl)amino)-5,6,7,8-tetrahydropyrido[3,4-d]pyrimidin-2-yl)pyrrolidin-2-yl)methanol] |
| < 6.00 | COc1cc(-n2cnc(Nc3nc(N4CCC[C@H]4CO)c4ccn(S(=O)(=O)c5ccc(C)cc5)c4n3)c2)cc(OC)c1OC [Compound 159b, (S)-(1-(7-tosyl-2-((1-(3,4,5-trimethoxyphenyl)-1H-imidazol-4-yl)amino)-7H-pyrrolo[2,3-d]pyrimidin-4-yl)pyrrolidin-2-yl)methanol] |
| > 7.00 | COc1cc(-n2cnc(Nc3nc(N4CCC[C@H]4CO)c4cc[nH]c4n3)c2)cc(OC)c1OC [Compound 159c, (S)-(1-(2-((1-(3,4,5-trimethoxyphenyl)-1H-imidazol-4-yl)amino)-7H-pyrrolo[2,3-d]pyrimidin-4-yl)pyrrolidin-2-yl)methanol] |
| < 6.00 | COc1cc(-n2cnc(Nc3nc(N4CCC[C@H]4CO)nc4ccn(S(=O)(=O)c5ccc(C)cc5)c34)c2)cc(OC)c1OC [Compound 160c, (S)-(1-(5-tosyl-4-((1-(3,4,5-trimethoxyphenyl)-1H-imidazol-4-yl)amino)-5H-pyrrolo[3,2-d]pyrimidin-2-yl)pyrrolidin-2-yl)methanol] |
| > 7.00 | COc1cc(-n2cnc(Nc3nc(N4CCC[C@H]4CO)nc4cc[nH]c34)c2)cc(OC)c1OC [Compound 160d, (S)-(1-(4-((1-(3,4,5-trimethoxyphenyl)-1H-imidazol-4-yl)amino)-5H-pyrrolo[3,2-d]pyrimidin-2-yl)pyrrolidin-2-yl)methanol] |
| 6.00 to 7.00 | COc1cc(-n2cnc(Nc3nc(N4CCC[C@H]4C(N)=O)nc4ccn(S(=O)(=O)c5ccc(C)cc5)c34)c2)cc(OC)c1OC [Compound 162a, (S)-1-(5-tosyl-4-((1-(3,4,5-trimethoxyphenyl)-1H-imidazol-4-yl)amino)-5H-pyrrolo[3,2-d]pyrimidin-2-yl)pyrrolidine-2-carboxamide] |
